Data: US12649732B2, “Polymorphs of (R)-N-(5-(5-isopropyl-1,2,4-oxadiazol-3-yl)-2,3-dihydro-1H-inden-1-yl)-2-methyl-2H-tetrazole-5-carboxamide” (Cytokinetics, Inc., priority 2019, dated 2026)

Legend:
[1] = system: cardiac fractional shortening; experiment: Echocardiography of rat cardiac contractility, continuous IV infusion; assay type: in vivo, Sprague Dawley rats; settings: Mean±S.D., read-out: estimated IC50 (plasma concentration at which fractional shortening is 50% of pre-dose baseline)
Method: (§1) Assessment of in vivo cardiac function by echocardiography was performed in male Sprague Dawley rats under isoflurane (1-3%) anesthesia. 2-D M-mode images of the left ventricle were acquired in the parasternal long-axis view before, during, and after administration of compounds by continuous IV infusion or oral gavage. In vivo fractional shortening was determined by M-mode image analysis with the following calculation: ((End diastolic diameter−end systolic diameter)/end diastolic diameter×100). For continuous IV infusion experiments, three pre-dose baseline M-mode images were taken at 1 minute intervals prior to infusion of compound. Compounds were formulated in 50% Propylene Glycol (PG): 16% Captisol: 10% dimethylacetamide (DMA) and delivered via a jugular vein catheter at the rate of 1 mL/kg/h. During infusion, M-mode images were taken at 5 minute intervals. The infusion stopped when fractional shortening reached up to a 60% reduction from baseline. Blood samples were taken to determine the plasma concentration of the compounds. Data was reported as an estimated IC50 value, which is the concentration at which fractional shortening is 50% of the pre-dose baseline contractility.

[2] = system: cardiac fractional shortening; experiment: Echocardiography of rat cardiac contractility, oral dosing; assay type: in vivo, Sprague Dawley rats
Method: as §1, with “contractility. […] For oral dosing studies, three pre-dose baseline M-Mode images were taken at 1 minute intervals prior to compound administration. (R)—N-(5-(5-isopropyl-1,2,4-oxadiazol-3-yl)-2,3-dihydro-1H-inden-1-yl)-2-methyl-2H-tetrazole-5-carboxamide was formulated in a 0.5% hydroxypropyl methylcellulose 2910 (HPMC 2910): 0.1% Tween 80 suspension and delivered as a single dose (5 mL/kg) by oral gavage. Rats were lightly anesthetized for M-Mode echocardiography measurements at select time points over a 24 hour period. Different dose levels were evaluated. The compound effect on cardiac fractional shortening at the highest dose evaluated is presented below as a percent reduction of baseline fractional shortening (=100%). Concurrent with echocardiography measurements, blood samples were taken to determine the corresponding compound plasma concentration.” for “contractility.”

[3] = molecular target: T1, bovine cardiac myofibrils (Bos taurus, UniProt Q9BE39); experiment: Skinned bovine cardiac myofibril ATPase assay (PK/LDH-coupled); assay type: biochemical; settings: steady-state ATPase, Ca2+ giving 75% activation of myofibril ATPase
T1 construct: full-length cardiac myosin in the context of the native sarcomere; from tissue; host or cells: bovine cardiac left ventricular tissue (Triton X-100 skinned myofibrils)
T1 sequence (Q9BE39 whole entry): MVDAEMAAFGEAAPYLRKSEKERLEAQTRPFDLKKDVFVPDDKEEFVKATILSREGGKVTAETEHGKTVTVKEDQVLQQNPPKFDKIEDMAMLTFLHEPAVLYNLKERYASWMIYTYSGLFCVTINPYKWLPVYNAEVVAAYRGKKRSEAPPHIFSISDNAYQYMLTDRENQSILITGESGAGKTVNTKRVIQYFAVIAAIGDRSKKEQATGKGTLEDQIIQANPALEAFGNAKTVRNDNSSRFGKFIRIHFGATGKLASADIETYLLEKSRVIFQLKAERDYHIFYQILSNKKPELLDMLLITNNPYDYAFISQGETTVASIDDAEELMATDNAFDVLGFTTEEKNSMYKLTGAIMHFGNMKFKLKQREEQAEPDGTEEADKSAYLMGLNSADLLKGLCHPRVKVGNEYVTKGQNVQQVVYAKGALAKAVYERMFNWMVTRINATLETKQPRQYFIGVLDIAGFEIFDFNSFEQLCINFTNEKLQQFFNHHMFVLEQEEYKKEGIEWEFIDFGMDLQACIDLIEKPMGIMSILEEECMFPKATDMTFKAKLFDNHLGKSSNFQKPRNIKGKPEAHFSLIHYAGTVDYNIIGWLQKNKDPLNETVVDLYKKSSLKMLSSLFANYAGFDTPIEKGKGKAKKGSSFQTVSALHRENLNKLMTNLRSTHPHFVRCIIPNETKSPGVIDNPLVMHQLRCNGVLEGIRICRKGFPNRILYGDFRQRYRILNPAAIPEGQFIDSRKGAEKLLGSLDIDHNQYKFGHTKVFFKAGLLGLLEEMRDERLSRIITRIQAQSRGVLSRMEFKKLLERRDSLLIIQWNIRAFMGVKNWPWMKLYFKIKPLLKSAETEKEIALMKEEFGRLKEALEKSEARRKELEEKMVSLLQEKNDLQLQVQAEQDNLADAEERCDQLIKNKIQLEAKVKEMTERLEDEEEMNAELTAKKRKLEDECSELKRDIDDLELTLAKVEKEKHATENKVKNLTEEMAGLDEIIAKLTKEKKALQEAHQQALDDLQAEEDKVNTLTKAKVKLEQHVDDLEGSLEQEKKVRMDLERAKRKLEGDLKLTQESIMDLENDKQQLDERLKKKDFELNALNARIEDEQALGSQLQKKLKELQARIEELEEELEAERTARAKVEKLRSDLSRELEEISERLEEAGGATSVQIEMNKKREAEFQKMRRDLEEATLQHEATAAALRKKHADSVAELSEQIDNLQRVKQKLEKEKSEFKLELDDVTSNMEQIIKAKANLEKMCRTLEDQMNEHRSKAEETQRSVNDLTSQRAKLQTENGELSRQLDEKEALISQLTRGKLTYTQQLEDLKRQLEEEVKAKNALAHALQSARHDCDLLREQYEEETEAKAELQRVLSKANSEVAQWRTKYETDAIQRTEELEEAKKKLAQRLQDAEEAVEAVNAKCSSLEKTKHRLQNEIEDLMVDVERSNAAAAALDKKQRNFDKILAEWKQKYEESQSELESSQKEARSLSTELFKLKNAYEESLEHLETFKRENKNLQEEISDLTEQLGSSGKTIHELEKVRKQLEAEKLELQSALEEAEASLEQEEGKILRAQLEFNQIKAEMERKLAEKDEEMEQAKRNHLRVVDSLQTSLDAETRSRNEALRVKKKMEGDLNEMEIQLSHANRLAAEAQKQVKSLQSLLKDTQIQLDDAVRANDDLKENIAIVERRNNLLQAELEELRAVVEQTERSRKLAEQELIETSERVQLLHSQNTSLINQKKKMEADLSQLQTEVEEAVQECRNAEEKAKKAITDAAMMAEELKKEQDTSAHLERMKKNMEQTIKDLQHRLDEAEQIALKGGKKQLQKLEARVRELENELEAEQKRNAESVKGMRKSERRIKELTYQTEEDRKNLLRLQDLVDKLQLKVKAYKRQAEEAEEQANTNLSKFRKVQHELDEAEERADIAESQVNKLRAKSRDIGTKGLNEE
T1 sequence (P85100 whole entry partner): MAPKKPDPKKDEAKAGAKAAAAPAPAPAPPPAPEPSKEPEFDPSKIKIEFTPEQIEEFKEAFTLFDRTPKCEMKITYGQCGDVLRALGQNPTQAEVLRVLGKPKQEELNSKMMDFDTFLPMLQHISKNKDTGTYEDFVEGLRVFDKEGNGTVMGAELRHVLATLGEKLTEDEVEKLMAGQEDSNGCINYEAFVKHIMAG
T1 sequence (Q3SZE5 whole entry partner): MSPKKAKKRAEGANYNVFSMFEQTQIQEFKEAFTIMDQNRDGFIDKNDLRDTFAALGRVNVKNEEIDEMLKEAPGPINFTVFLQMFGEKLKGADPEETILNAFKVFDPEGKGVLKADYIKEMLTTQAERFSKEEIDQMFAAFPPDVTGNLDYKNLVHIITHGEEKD
Method: To evaluate the effect of (R)—N-(5-(5-isopropyl-1,2,4-oxadiazol-3-yl)-2,3-dihydro-1H-inden-1-yl)-2-methyl-2H-tetrazole-5-carboxamide on the ATPase activity of full-length cardiac myosin in the context of the native sarcomere, skinned myofibril assays were performed. Bovine cardiac myofibrils were obtained by homogenizing bovine cardiac left ventricular tissue in the presence of a detergent such as triton X-100. Such treatment removes membranes and a majority of the soluble cytoplasmic proteins but leaves intact the cardiac sarcomeric acto-myosin apparatus. Myofibril preparations retain the ability to hydrolyze ATP in a Ca^2+ regulated manner. […] Small molecule agents were assessed for their ability to inhibit the steady-state ATPase activity of bovine cardiac myofibrils using pyruvate kinase and lactate dehydrogenase (PK/LDH)-coupled enzyme system. This assay regenerates myosin-produced ADP into ATP by oxidizing NADH, producing an absorbance change at 340 nm. Prior to testing small molecule agents, the bovine cardiac myofibrils were assessed for their calcium responsiveness and the calcium concentration that achieves either a 50% (pCa50) or 75% (pCa75) activation of the myofibril system was chosen as the final condition for assessing the inhibitory activity of the small molecule agents.

[4] = system: adult rat ventricular myocytes; experiment: Myocyte contractility assay (fractional shortening, edge detection); assay type: cell-based, Sprague-Dawley rats; settings: 5 μM, 5 min perfusion, 5 cells tested
Method: Adult male Sprague-Dawley rats were anesthetized and the hearts were quickly excised, rinsed and the ascending aorta was cannulated. Continuous retrograde perfusion was initiated on the hearts at a perfusion pressure of 60 cm H2O. Hearts were first perfused with a nominally Ca^2+-free modified Krebs solution of the following composition: 113 mM NaCl, 4.7 mM KCl, 0.6 mM KH2PO4, 0.6 mM Na2HPO4, 1.2 mM MgSO4, 12 mM NaHCO3, 10 mM KHCO3, 30 mM taurine, 5.5 mM glucose and 10 mM Hepes (all Sigma). This medium is not recirculated and is continually aerated with a 95% O2/5% CO2 mixture. […]
Aliquots of myocytes in Tyrode's buffer were placed in perfusion chambers (series 20 RC-27NE; Warner Instruments) complete with heating platforms. […] Contractility of the myocytes and contraction and relaxation velocities were then recorded using edge detection.
Five or more individual myocytes were tested per compound from two or more different myocyte preparations. […] These average transients were analyzed using the IonWizard software (IonOptix) to determine changes in diastolic length and fractional shortening. Fractional shortening was calculated as: ((resting length−length at peak contraction) divided by the resting length). The percent change in fractional shortening from baseline was calculated as: ((post-dose fractional shortening/basal fractional shortening)*100). […]

CC(C)c1nc(-c2ccc3c(c2)CC[C@H]3NC(=O)c2nnn(C)n2)no1 [(R)—N-(5-(5-isopropyl-1,2,4-oxadiazol-3-yl)-2,3-dihydro-1H-inden-1-yl)-2-methyl-2H-tetrazole-5-carboxamide]
IC50 [1]: 2700 ± 120 nM | FS (% reduction from baseline) at 1-2 h post dose (Mean ± S.D.) ([2]; 6 mg/kg single oral gavage, 1-2 h post dose): 40 ± 9% | FS (% reduction from baseline) at 4 h post dose (Mean ± S.D.) ([2]; 6 mg/kg single oral gavage, 4 h post dose): 18 ± 11% | IC50 ([2]; Rattus norvegicus, oral dosing, read-out: estimated IC50 (plasma concentration, fractional shortening)): 2900 nM | estimated IC10 (plasma concentration, fractional shortening) ([2]; oral dosing): 700 nM | IC15 (CDMF75) [3]: 500 nM | % FS (% reduction from baseline) ± SEM [4]: 67.8 ± −5.4%
